Source: patent US9132176B2, “RAB6KIFL/KIF20A epitope peptide and vaccines containing the same” (ONCOTHERAPY SCIENCE, INC., priority 2008, dated 2015)
Where a SMILES comes first, the peptide text is derived from it.

Key:
SKHep1/RAB6KIFL = assay: 51Cr release assay of peptide-induced CTLs against SKHep1/RAB6KIFL; format: cell-based, human; conditions: SKHep1 transfected with RAB6KIFL gene (RAB6KIFL high, HLA-A2+)
Protocol: (§1) A lentiviral vector-mediated gene transfer was performed as described previously (Imai K, et al. Clin Cancer Res 2008; 14:6487-95, Tahara-Hanaoka S, et al. Exp Hematol 2002; 30:11-7). Briefly, 17 micro-g of CSII-CMV-RfA and CSIIEF-RfA self-inactivating vectors (Miyoshi H, et al. J Virol 1998; 72: 8150-7) carrying RAB6KIFL cDNAs and 10 micro-g of pCMV-VSV-G-RSV-Rev and pCAG-HIVgp were transfected into the 293T cells grown in a 10-cm culture dish using Lipofectamine 2000 reagent (Invitrogen Corporation, Carlsbad, Calif., USA). After 60 hr of transfection, the medium was recovered and the viral particles were pelleted by ultra-centrifugation (50,000×g, 2 hr). The pellet was suspended in 50 micro-L of RPMI 1640 medium and 10 micro-L of viral suspension was added to 5×10^4 SKHep1 cells, per well in a flat-bottom 96-well plate. The expression of the transfected RAB6KIFL gene was confirmed by a Western blot analysis.
(§2) Human RAB6KIFL-derived peptides (purity>95%), carrying binding motifs for HLA-A2 (A*0201)-encoded molecules, were selected using the BIMAS software program (BioInformatics and Molecular Analysis Section, Center for Information Technology, NIH, Bethesda, Md.) and 36 peptides were synthesized (American Peptide Company, CA, USA) (Tables 1A and B). Monocyte-derived DCs were used as antigen-presenting cells to induce CTL responses against peptides presented in the context of HLA. DCs were generated in vitro culture as described previously (Yoshitake Y, et al. Clin Cancer Res 2004; 10:6437-48, Harao M, et al. Int J Cancer 2008; in press, Imai K, et al. Clin Cancer Res 2008; in press). Briefly, PBMCs isolated from a normal volunteer positive for HLA-A2 using Ficoll-Plaque (GE Healthcare UK, Ltd., Buckinghamshire, UK) solution were sorted to CD8^+ population and CD14^+ population with microbeads (Miltenyi Biotec, Bergisch Gladbach, Germany). […]

CaCo-2 = assay: 51Cr release assay of peptide-induced CTLs against CaCo-2; format: cell-based, human; conditions: CaCo-2 (RAB6KIFL+, HLA-A2+); healthy donors
Excerpt: as §2, with “Germany). To generate DCs, the CD14^+ population was cultured in the presence of 100 ng/mL granulocyte-macrophage colony-stimulating factor (GM-CSF; PeproTec Inc., NJ, USA) and 10 ng/mL interleukin (IL)-4 (PeproTec) in AIM-V (Invitrogen) containing 2% heat-inactivated autologous plasma. After 5 days of culture, OK-432 was added into the dish to make the DCs mature.” for “Germany).”
(§3) The CTLs were cocultured with each of the cancer cells, or the peptide-pulsed T2 cells, as a target cell (5×10^3/well) at the indicated effector/target ratio and a standard ^51Cr release assay was done as described previously (Yoshitake Y, et al. Clin Cancer Res 2004; 10:6437-48. Imai K, et al. Clin Cancer Res 2008; in press). […] After 6 h incubation, 50 micro L of the supernatant was collected from each well and the radioactivity was quantified using a gamma counter. The specific cytotoxicity was evaluated by calculating the percentage of specific ^51Cr release. […]

T2 cells = assay: Induction of human CTLs from PBMCs, 51Cr release assay against peptide-pulsed T2 cells; format: cell-based; conditions: CTLs from PBMCs of two HLA-A2-positive healthy donors, three stimulations with peptide-pulsed DCs
Excerpt: as §2, with “Germany). To generate DCs, the CD14^+ population was cultured in the presence of 100 ng/mL granulocyte-macrophage colony-stimulating factor (GM-CSF; PeproTec Inc., NJ, USA) and 10 ng/mL interleukin (IL)-4 (PeproTec) in AIM-V (Invitrogen) containing 2% heat-inactivated autologous plasma. After 5 days of culture, OK-432 was added into the dish to make the DCs mature.” for “Germany).”
as §3

SKHep1/Mock = assay: 51Cr release assay of peptide-induced CTLs against SKHep1/Mock; format: cell-based, human; conditions: mock-transfected SKHep1
Protocol: as §1, §2

PANC1 = assay: 51Cr release assay of peptide-induced CTLs against PANC1; format: cell-based, human; conditions: PANC1 (RAB6KIFL+, HLA-A2+); healthy donors
Excerpt: as §2, with “Germany). To generate DCs, the CD14^+ population was cultured in the presence of 100 ng/mL granulocyte-macrophage colony-stimulating factor (GM-CSF; PeproTec Inc., NJ, USA) and 10 ng/mL interleukin (IL)-4 (PeproTec) in AIM-V (Invitrogen) containing 2% heat-inactivated autologous plasma. After 5 days of culture, OK-432 was added into the dish to make the DCs mature.” for “Germany).”
as §3

HLA-A2 (HHD) Tgm = assay: Autoimmune phenomenon after peptide vaccination: immunohistochemistry with anti-CD4/anti-CD8 mAb and observation; format: in vivo, mouse
Protocol: Western blotting and immunohistochemical staining of RAB6KIFL protein were performed as described previously (Nakatsura T, et al. Biochem Biophys Res Commun 2001; 281:936-44. Yoshitake Y, et al. Clin Cancer Res 2004; 10:6437-48). For Western blotting analyses of human normal tissues, a pre-made human adult normal tissue blot (Biochain, Hayward, Calif.) was used. The primary antibodies used herein, anti-RAB6KIFL polyclonal antibody, and monoclonal anti-b-actin antibody, were purchased from Bethyl Laboratories, Inc. (Montgomery, Tex., USA) and Sigma (Steinheim, Germany), respectively. Immunohistochemical staining of CD4 or CD8 in tissue specimens of HLA-A2.1 (HHD) Tgm immunized with the RAB6KIFL-A2-10-284 peptide was done as described previously (Matsuyoshi H, et al. 2004; 172:776-86).
It is very important to investigate whether the immunization with RAB6KIFL peptide induce an autoimmune reaction or not. We thus performed the immunohistochemical analysis of several vital organs with anti-CD4 and anti-CD8 mAb in HLA-A2 (HHD) Tgm after two-times vaccination with RAB6KIFL-A2-9-809 peptide, of which amino-acid sequences were completely conserved between human and mouse RAB6KIFL. […] The abnormalities frequently observed in mice affected with autoimmune diseases such as abnormal hair and skin, diarrhea and weight loss were also not observed in these mice.

[1] = test system: cancer cells expressing both RAB6KIFL and HLA-A2; assay: Comparison of the cytotoxicity of CTLs induced by the three peptides; format: cell-based, human; conditions: vs RAB6KIFL-A2-9-12 and RAB6KIFL-A2-10-284
Protocol: The CTLs were cocultured with each of the cancer cells, or the peptide-pulsed T2 cells, as a target cell (5×10^3/well) at the indicated effector/target ratio and a standard ^51Cr release assay was done as described previously (Yoshitake Y, et al. Clin Cancer Res 2004; 10:6437-48. Imai K, et al. Clin Cancer Res 2008; in press). Briefly, target cells were labeled with 3.7 KBq […] (Perkin Elmer Life Sciences) for 1 h at 37 degree C. in a CO2 incubator. Labeled target cells were rinsed three times, and peptide-pulsed target cells were prepared by incubating the cells with 20 micro g/mL peptide for 3 h at 37 degrees C. Target cells were mixed with effector cells in final volume of 200 micro L in flat-bottomed microtiter plates and incubated. After 6 h incubation, 50 micro L of the supernatant was collected from each well and the radioactivity was quantified using a gamma counter. The specific cytotoxicity was evaluated by calculating the percentage of specific ^51Cr release.
The potential of RAB6KIFL as an immunotherapeutic target was verified herein by identifying the HLA-A2-restricted epitope peptides and evaluating their immunogenicity. […]

Row | SMILES | cytotoxicity of peptide-induced CTLs against SKHep1/RAB6KIFL (SKHep1/RAB6KIFL) | cytotoxicity of peptide-stimulated CTLs to CaCo-2 (CaCo-2) | cytotoxic activity of induced CTLs to T2 cells pulsed with the peptide (T2 cells) | cytotoxicity of peptide-induced CTLs against SKHep1/Mock (SKHep1/Mock) | cytotoxicity of peptide-stimulated CTLs to PANC1 (PANC1) | pathologic change (lymphocyte infiltration or tissue destruction suggesting autoimmunity) in vital organs (HLA-A2 (HHD) Tgm; after two-times vaccination, anti-CD4 and anti-CD8 staining) | abnormalities of autoimmune disease (abnormal hair and skin, diarrhea, weight loss) (HLA-A2 (HHD) Tgm; mouse, in vivo) | cytotoxicity of peptide-induced CTLs compared with CTLs induced by the other two peptides [1]
1 | CC(C)C[C@H](NC(=O)[C@@H](N)CC(C)C)C(=O)N[C@@H](CO)C(=O)N[C@@H](CC(=O)O)C(=O)N[C@@H](CC(=O)O)C(=O)N[C@@H](CC(=O)O)C(=O)N[C@H](C(=O)N[C@H](C(=O)N[C@H](C(=O)O)C(C)C)C(C)C)C(C)C [RAB6KIFL-A2-9-12, LLSDDDVVV] (H-LLSDDDVVV-OH; N-terminus and C-terminus assumed) | exhibited cytotoxicity | exhibited cytotoxicity | exhibited cytotoxic activity | but not against SKHep1/Mock | exhibited cytotoxicity | – | – | –
2 | CC[C@H](C)[C@H](NC(=O)[C@@H](N)CS)C(=O)N[C@@H](C)C(=O)N[C@@H](CCC(=O)O)C(=O)N[C@@H](CCC(N)=O)C(=O)N[C@@H](Cc1ccc(O)cc1)C(=O)N[C@@H](Cc1c[nH]cn1)C(=O)N[C@H](C(=O)N[C@H](C(=O)O)C(C)C)[C@@H](C)O [RAB6KIFL-A2-9-809, CIAEQYHTV] (H-CIAEQYHTV-OH; N-terminus and C-terminus assumed) | exhibited cytotoxicity | exhibited cytotoxicity | exhibited cytotoxic activity | but not against SKHep1/Mock | exhibited cytotoxicity | no pathologic change | not observed | stronger cytotoxicity
3 | CC(C)C[C@H](NC(=O)[C@@H]1CCCN1C(=O)[C@H](C)NC(=O)[C@@H](NC(=O)[C@H](CC(=O)O)NC(=O)[C@@H]1CCCN1C(=O)[C@H](CCC(N)=O)NC(=O)[C@H](C)N)[C@@H](C)O)C(=O)N1CCC[C@H]1C(=O)N[C@H](C(=O)O)C(C)C [RAB6KIFL-A2-10-284, AQPDTAPLPV] (H-AQPDTAPLPV-OH; N-terminus and C-terminus assumed) | exhibited cytotoxicity | exhibited cytotoxicity | exhibited cytotoxic activity | but not against SKHep1/Mock | exhibited cytotoxicity | – | – | –
